Experimental findings from US6448202B1, “Withering-preventing and quick-acting nutrition supplementing agent for gramineous plants” (Ajinomoto Co., Inc., priority 1999, dated 2002) are described below.

The subject of this test is lawn grass (European grass, evergreen lawn grass). Put plainly: Hydroponic cultivation of a lawn grass: withering prevention and growth. Conditions: for Average root length / Leaf length MAX. / Leaf length MIN. / Total weight of living plant: 5 stocks; for Number of days till the plants were withered: from transplantation till about 70 percent of the leaves were withered. The class given is in vivo. Here is the method: Seedlings of a lawn grass (European grass, evergreen lawn grass) were cultivated and divided into eight groups of A to H, one group being composed of 80 stocks. In the groups B to H, inosine and uridine were added to each hydroponic liquid in such amount that the concentration became as shown in the table, and proline was diluted with water such that the concentration became as shown in the table and sprayed onto the leaves every day. Group A was the control.
On the 35th day, five average stocks which had not been withered were sampled from each group. […] In the table, the number of days till the plants were withered means the number of days from transplantation of the seedlings till about 70 percent of the leaves were withered.

Where [1] appears, read: group B: 2 ppm inosine in hydroponic liquid.
Where [2] appears, read: group B: 2 ppm inosine in hydroponic liquid, 35th day.
Setting [3] is: group D: 2 ppm proline sprayed onto leaves every day, 35th day.
Setting [4] is: group F: 35 ppm proline sprayed onto leaves every day, 35th day.
Where [5] appears, read: group G: 0.1 ppm proline sprayed onto leaves every day, 35th day.

In the case of `OC[C@H]1O[C@@H](n2cnc3c(O)ncnc32)[C@H](O)[C@@H]1O` [inosine, reference compound], under setting [1], the Remarks result was “Wilted and partially”; the “Number of days till the plants were withered” value (shortened to “Number”) is 25 days. In addition, under setting [2], the Average root length is on record as 2 cm, the “Leaf length MAX.” value was 27 cm, the “Leaf length MIN.” value is on record as 8 cm and the “Total weight of living plant” value stood at 0.22 g.

With `O=C(O)[C@@H]1CCCN1` [proline], the Remarks entry runs as follows: (group D: 2 ppm proline) “Both leaves and steins”; (group F: 35 ppm proline) “Partially wilted”; (group G: 0.1 ppm proline) “Partially wilted”. The Average root length runs as follows: under setting [3], 3 cm; under setting [4], 2 cm; under setting [5], 2 cm. Further, the “Leaf length MAX.” value is given as 21 cm under setting [3], 20 cm under setting [4] and 19 cm under setting [5]. For the same molecule, the “Leaf length MIN.” value runs as follows: under setting [3], 12 cm; under setting [4], 8 cm; under setting [5], 7 cm. The “Total weight of living plant” value reads like this: under setting [3], 0.54 g; under setting [4], 0.28 g; under setting [5], 0.22 g. The “Number” value (group D: 2 ppm proline) is on record as 38 days, the “Number” value (group F: 35 ppm proline) is listed as 28 days and the “Number” value (group G: 0.1 ppm proline) stood at 27 days. For the same molecule, for the setting “proline-treated plot, especially at a concentration of 2 ppm, 35th day”, the “Growth at the root, leaf length and total weight of the living plants” value is “better growth”.
